According to paper PMC10328743, “5-Nitro-3-(2-(4-phenylthiazol-2-yl)hydrazineylidene)indolin-2-one derivatives inhibit HIV-1 replication by a multitarget mechanism of action” (Frontiers in Cellular and Infection Microbiology, 2023):
Where two headings read alike, the source gives them in different places.

How the values were obtained:
[1] = molecular target: T1, HIV-1 IN (LEDGF-independent) (Human immunodeficiency virus type 1 group M subtype B, UniProt P12497); test: biochemical; conditions: strand-transfer activity with omission of LEDGF/p75; read-out: IC50 IN LEDGF-independent integration
T1 construct: Preparation of recombinant full-length IN and LEDGF proteins; made in house; host or cells: E. coli BL21(DE3)
Procedure: (§1) Proteins were expressed in E. coli BL21(DE3). Briefly, His-IN was purified by loading the precipitate of cell lysate onto a Ni-Sepharose column and eluting with a […] imidazole gradient (0–500 mM) in a HEPES buffer (50 mM, pH 7.5) containing NaCl (1 M), CHAPS (7.5 mM), and β-mercaptoethanol (2 mM). FLAG-IN was purified by loading the precipitate of cell lysate onto a phenyl-sepharose and ammonium sulfate gradient (0–800 mM) in a HEPES (pH 7.5, 50 mM) buffer containing NaCl (200 mM), CHAPS (7.5 mM), and β-mercaptoethanol (2 mM). Peak fractions were pooled, loaded onto a heparin column, and eluted with an increasing NaCl gradient (200 mM to 1 M) in a HEPES (pH 7.5, 50 mM) buffer containing CHAPS (7.5 mm) and β-mercaptoethanol (2 mM). Fractions containing integrase were pooled and stored in glycerol (10%) at −80°C.
(§2) Briefly, IN (50 nM) was preincubated with increasing concentrations of compounds for 1 h at room temperature in a reaction buffer containing HEPES (20 mM, pH 7.5), DTT (1 mM), glycerol (1%), MgCl2 (20 mM), Brij-35 (0.05%), and bovine serum albumin (BSA) (0.1 mg/ml).

HIV-1 [2] = test: HIV-1 replication inhibition in MT4 cells; assay type: cell-based; conditions: three independent experiments, average ± standard deviation, read-out: HIV-1 EC50
Procedure: (§3) HIV-1 replication was carried out in MT4 cells as previously reported ([Corona et al., 2016a]) using a molecular clone derived from the pNL4-3 ([Thierry et al., 2015]). A total of 120 ng of p24^gag antigen per 10^6 cells, corresponding to a multiplicity of infection (m.o.i.) of 0.3, was used for infection. […] Flow cytometry analysis was performed on a FACSCalibur flow cytometer (BD Biosciences, San Jose, CA, USA), and the results were analyzed using the […] software.

HIV-1 RT-associated RDDP = molecular target: T2, HIV-1 RT-associated RDDP (Human immunodeficiency virus type 1 group M subtype B, UniProt P04585); test: HIV-1 RNA-dependent DNA polymerase activity determination; assay type: biochemical; conditions: wt HIV-1 RT; three independent experiments, average ± standard deviation; read-out: RDDP IC50
T2 construct: The 1:1 ratio between the p66/p51 subunits was also verified; His tag (implied only by Ni-NTA IMAC purification); made in house; host or cells: Escherichia coli M15
Procedure: (§4) Escherichia coli strain M15 containing the p6HRT-prot vector (provided by Stuart Le Grice laboratory (NCI Frederick)) was grown to an optical density at 600 nm of 0.7 and induced with 1.7 mM of isopropyl β-D-1-thiogalactopyranoside (IPTG) for 4 h. Protein purification was carried out with a BioLogic LP system (Bio-Rad, Hercules, CA, USA) using a combination of immobilized metal affinity chromatography (IMAC) and ion exchange chromatography. Cell pellets were resuspended in lysis buffer (50 mM of sodium phosphate buffer, pH 7.8, containing 0.5 mg/mL of lysozyme), incubated on ice for 20 min, and, after the addition of NaCl to a final concentration of 0.3 M, were sonicated and centrifuged at 30,000 ×g for 1 h. The supernatant was loaded onto a Ni^2+-NTA-Sepharose column pre-equilibrated with loading buffer (50 mM of sodium phosphate buffer, pH 7.8, containing 0.3 M of NaCl, 10% glycerol, and 10 mM of imidazole) and washed thoroughly with wash buffer (50 mM of sodium phosphate buffer, pH 6.0, containing 0.3 M of NaCl, 10% glycerol, and 80 mM of imidazole). RT was eluted with an imidazole gradient in the wash buffer (0–0.5 M). Fractions were collected, and protein purity was checked by sodium dodecyl sulfate–polyacrylamide gel electrophoresis (SDS-PAGE) and found to be higher than 90%. The 1:1 ratio between the p66/p51 subunits was also verified. Enzyme-containing fractions were pooled and diluted 1:1 with 50 mM of sodium phosphate buffer, pH 7.0, containing 10% glycerol, and then loaded into a Hi-trap heparin HP GE (Healthcare LifeScience) pre-equilibrated with 10 column volumes of loading buffer (50 mM of sodium phosphate buffer, pH 7.0, containing 10% glycerol, and 150 mM of NaCl). The column was then washed with loading buffer, and the RT was eluted with Elute Buffer 2 (50 mM of sodium phosphate, pH 7.0, 10% glycerol, 1 M of NaCl). Fractions were collected, and the protein was dialyzed and stored in a buffer containing 50 mM of Tris-HCl, pH 7.0, 25 mM of NaCl, 1 mM of EDTA, and 50% glycerol. Catalytic activities and protein concentrations were determined. Enzyme-containing fractions were pooled, and aliquots were stored at −80°C.
(§5) RDDP activity was measured as previously reported in 25-µl volume containing 60 mM of Tris‐HCl buffer, pH 8.1, 8 mM of MgCl2, 60 mM of KCl, 13 mM of DTT, 2.5 µM of poly(A)-oligo(dT), 100 µM of dTTP, increasing concentrations of inhibitors, whose dilution were made in water, and different amounts of enzymes according to a linear range of the dose–response curve. The reaction mixture was incubated for 30 min at 37°C and then stopped by the addition of EDTA. Reaction products were detected by pico green addition and measured with a multilabel counter plate reader Victor 3, equipped with filters for 502/523 nm.

[3] = molecular target: T3, HIV-1 RT-associated RNase H (Human immunodeficiency virus type 1 group M subtype B, UniProt P04585); test: HIV-1 DNA polymerase-independent RNase H activity determination; assay type: biochemical; conditions: wt HIV-1 RT; three independent experiments, average ± standard deviation; read-out: RNase H IC50
T3 construct: The 1:1 ratio between the p66/p51 subunits was also verified; His tag (implied only by Ni-NTA IMAC purification); made in house; host or cells: Escherichia coli M15
Procedure: as §4
HIV RT-associated RNase H activity was measured as described ([Corona et al., 2016b]) in a 100-µl reaction volume containing 50 mM of Tris-HCl buffer, pH 7.8, 6 mM of MgCl2, 1 mM of dithiothreitol (DTT), 80 mM of KCl, 0.25 µM of hybrid RNA/DNA 5′-[…]-Fluorescin-3′ (high-performance liquid chromatography (HPLC), dry, QC: Mass Check) (available from Metabion) 5′-Dabcyl-[…]-3′ (HPLC, dry, QC: Mass Check), increasing concentrations of inhibitors, whose dilution were made in water, and different amounts of enzymes according to a linear range of the dose–response curve. The reaction mixture was incubated for 1 h at 37°C and stopped by the addition of EDTA, and products were measured with a multilabel counter plate reader Victor 3 equipped with filters for 490/528 nm.

MT4 cells [4] = test: Viability of infected MT4 cells (cytotoxicity); assay type: cell-based; conditions: no toxicity up to the highest concentration tested
Procedure: as §3

[5] = Viability of infected MT4 cells (cytotoxicity); assay type: cell-based; conditions: human, MT4 cells infected with HIV-1; infected MT4 cells viability; three independent experiments, average ± standard deviation
Procedure: as §3

[6] = molecular target: T4, HIV-1 IN (LEDGF/p75-dependent) (Human immunodeficiency virus type 1 group M subtype B, UniProt P12497); test: biochemical; assay type: biochemical; conditions: strand-transfer activity in the presence of LEDGF/p75; read-out: IC50 IN LEDGF-dependent integration
T4 construct: Preparation of recombinant full-length IN and LEDGF proteins; made in house; host or cells: E. coli BL21(DE3)
Procedure: as §1, §2

HIV-1 IN-LEDGF binding = molecular target: T5, HIV-1 IN-LEDGF binding (Human immunodeficiency virus type 1 group M subtype B, UniProt P12497); test: biochemical
T5 construct: Preparation of recombinant full-length IN and LEDGF proteins; made in house; host or cells: E. coli BL21(DE3)
Procedure: as §1
Briefly, His-IN was preincubated with different concentrations of a compound in a buffer containing NaCl (150 mm), MgCl2 (2 mM), Nonidet P-40 (0.1%), BSA (1 mg/ml), and Tris (pH 7.4, 25 mm) for 30 min at room temperature. Then, FLAG-LEDGF was added to the reaction mixture, and a mixture of anti-His6-XL665 and anti-FLAG-EuCryptate antibodies was added.

[7] = molecular target: T6, HIV-1 IN-IN subunit exchange (Human immunodeficiency virus type 1 group M subtype B, UniProt P12497); test: HTRF-based IN subunit exchange assay; assay type: binding
T6 construct: Preparation of recombinant full-length IN and LEDGF proteins; made in house; host or cells: E. coli BL21(DE3)
Procedure: as §1
His and FLAG-tagged INs were mixed in Tris (pH 7.4, 25 mm) buffer containing NaCl (150 mm), MgCl2 (2 mM), Nonidet P-40 (0.1%), and BSA (1 mg/ml). Test compounds were then added to the mixture, and incubation was carried out for 2.5 h at room temperature.

HIV-1 [8] = conditions: read-out: HIV-1 EC50; viral replication in MT4 cells; ref Corona et al. (2014a); cited from earlier work
MT4 cells [9] = conditions: cited from earlier work
HIV-1 RT K103N (RDDP) = test: RDDP activity of K103N HIV-1 RT; assay type: biochemical
Procedure: (§6) K103N, Y181C, and Y188L mutations were introduced into the p6HRT-prot vector using the QuikChange protocol (Agilent Technologies, Santa Clara, CA, USA). Enzymes were expressed and purified as the wt-HIV-1 RT.
as §5

HIV-1 RT Y188L (RDDP) = test: RDDP activity of Y188L HIV-1 RT; assay type: biochemical
Procedure: as §6, §5

HIV-1 RT Y181C (RDDP) = test: RDDP activity of Y181C HIV-1 RT; assay type: biochemical
Procedure: as §6, §5

[10] = Human immunodeficiency virus 1, MT4, viral replication in MT4 cells

Structure (SMILES)	IC50 [1]	EC50 (HIV-1 [2]; [10])	EC50 (HIV-1 [2]; viral replication in MT4 cells)	IC50 (HIV-1 RT-associated RDDP)	IC50 [3]	toxicity against MT4 cells (MT4 cells [4])	CC50 [5]	IC50 [6]	IC50 (HIV-1 IN-LEDGF binding)	IC50 [7]	EC50 (HIV-1 [8])	CC50 (MT4 cells [9])	CC50 (MT4 cells [9]; read-out: MT4 CC50, MT4 cells viability, ref Corona et al. (2014a))	increase in IC50 vs wt RT, RDDP activity (HIV-1 RT K103N (RDDP))	increase in IC50 vs wt RT, RDDP activity (HIV-1 RT Y188L (RDDP))	increase in IC50 vs wt RT, RDDP activity (HIV-1 RT Y181C (RDDP))
O=C1Nc2ccc([N+](=O)[O-])cc2/C1=N/Nc1nc(-c2ccc(Cl)cc2)cs1 [1a]	100 µM	< 20 µM	25 ± 2.1 µM	10 ± 0.5 µM	4.6 ± 1.4 µM	> 100 µM	> 100 µM	22.4 ± 4.65 µM	> 100 µM	22.8 ± 2.6 µM	–	–	–	–	–	–
CCOC(=O)C(=O)CC(=O)/C=C/c1cccn1Cc1ccccc1Cl [RDS1759]	–	–	–	–	–	–	–	–	–	–	2.1 µM	> 50 µM	–	–	–	–
N#Cc1ccc(-c2csc(NN=C3C(=O)Nc4ccccc43)n2)cc1 [RMNC6, reference compound]	> 100 µM	–	–	–	–	–	–	> 100 µM	> 100 µM	> 100 µM	–	–	–	–	–	–
O=C1Nc2ccc(Cl)cc2[C@@](C#CC2CC2)(C(F)(F)F)O1 [EFV, efavirenz]	–	–	–	–	–	–	–	–	–	–	–	–	> 0.31 µM	9.1 fold	14 fold	3.5 fold
O=C1Nc2ccc([N+](=O)[O-])cc2/C1=N/Nc1nc(-c2ccc(Br)cc2)cs1 [3a]	73.5 ± 13.5 µM	< 20 µM	32 ± 3.2 µM	8.5 ± 0.5 µM	4.3 ± 0.7 µM	> 100 µM	> 100 µM	15.5 ± 3 µM	> 100 µM	18.5 ± 3.5 µM	–	–	–	–	–	–
